Values quoted from earlier work, collected in patent US20080305060A1, “AQUEOUS-ALCOHOLIC DEPIGMENTING GELS” (GALDERMA RESEARCH & DEVELOPMENT, priority 2005, published 2008).
Read-outs that look alike come from different tables or passages of the source.

Which Incidence of irritation (10% hydroquinone concentration) does the source give for `Oc1ccc(O)cc1` [hydroquinone] here?
The Incidence of irritation was “relatively high”.

And the Incidence of irritation (hydroquinone concentration of 2%)?
Its Incidence of irritation is “virtually nonexistent”.

What about the Incidence of irritation (preparations with a 5% dose of hydroquinone) of the same molecule?
Its Incidence of irritation is “reduces greatly”.
